Experimental findings from patent US20240190874A1, “SMALL MOLECULE DEGRADERS OF ANDROGEN RECEPTOR” (THE REGENTS OF THE UNIVERSITY OF MICHIGAN, priority 2021, published 2024) are described below.

Common to all, as to type: cell-based
One test relates to LNCaP cells. Put plainly: Cellular potency (IC50) in LNCaP cells. Particulars: Homo sapiens, LNCaP. As to the method:
(§1) Biological Assays. LNCaP and VCaP cells used were purchased from American Type Culture Collection (ATCC). LNCaP were grown in RPMI 1640 (Invitrogen) and VCaP cells were grown in DMEM with Glutamax (Invitrogen). All of the cells were supplemented with 10% fetal bovine serum (Invitrogen) at 37° C. in a humidified 5% CO2 incubator.

A further test deals with T1, AR (Homo sapiens, UniProt P10275).
T1 construct: Degradation of AR; Cellular potency; host or cells: VCaP cells
T1 sequence (P10275 1-920): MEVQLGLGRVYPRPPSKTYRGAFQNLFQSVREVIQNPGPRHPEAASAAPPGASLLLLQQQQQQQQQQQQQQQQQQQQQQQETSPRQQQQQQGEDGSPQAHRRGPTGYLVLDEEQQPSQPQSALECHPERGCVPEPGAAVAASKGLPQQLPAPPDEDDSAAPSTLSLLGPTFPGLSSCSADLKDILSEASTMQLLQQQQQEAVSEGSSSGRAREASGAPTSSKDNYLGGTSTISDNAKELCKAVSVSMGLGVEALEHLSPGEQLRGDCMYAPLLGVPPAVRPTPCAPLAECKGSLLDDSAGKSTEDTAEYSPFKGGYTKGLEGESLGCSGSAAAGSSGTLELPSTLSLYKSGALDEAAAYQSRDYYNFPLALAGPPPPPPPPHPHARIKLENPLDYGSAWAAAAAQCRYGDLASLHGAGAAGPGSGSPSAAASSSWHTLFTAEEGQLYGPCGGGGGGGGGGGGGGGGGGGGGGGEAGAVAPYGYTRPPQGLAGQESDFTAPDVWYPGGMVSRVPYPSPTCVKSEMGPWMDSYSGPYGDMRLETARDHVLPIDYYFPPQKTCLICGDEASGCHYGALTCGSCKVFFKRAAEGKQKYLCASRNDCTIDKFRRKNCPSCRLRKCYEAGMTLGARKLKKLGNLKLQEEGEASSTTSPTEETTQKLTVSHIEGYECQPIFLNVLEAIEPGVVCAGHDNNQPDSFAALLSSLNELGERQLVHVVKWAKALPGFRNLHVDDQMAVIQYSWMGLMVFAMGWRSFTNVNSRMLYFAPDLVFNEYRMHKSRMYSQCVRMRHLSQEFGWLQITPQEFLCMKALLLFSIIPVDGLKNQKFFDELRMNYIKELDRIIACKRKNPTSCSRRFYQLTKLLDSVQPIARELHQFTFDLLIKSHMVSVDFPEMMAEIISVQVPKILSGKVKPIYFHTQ
Description: Degradation of AR in VCaP cells. Conditions: VCaP cells. The procedure: as §1

The next test relates to VCaP cells. Put plainly: Cellular potency (IC50) in VCaP cells. Particulars: Homo sapiens, VCaP. As to the method: as §1

For `C[C@H]1CC2(CCN(c3cnc(CN4CCN(C5CN(c6ccc7c(c6)C(=O)N(C6CCC(=O)NC6=O)C7=O)C5)CC4)cn3)CC2)CN1c1ccc(C#N)c(Cl)c1` (stereo partly drawn) [compound 185], the half-inhibitory concentration (IC50) in the test with LNCaP cells and in the test with VCaP cells was < 0.1 µM each time. Besides, at AR, the DC50 is < 0.001 µM.

For the molecule `C[C@H]1CC2(CCN(c3ccc(C(=O)N4CCC(N5CCOc6cc7c(cc6C5)C(=O)N(C5CCC(=O)NC5=O)C7=O)CC4)cc3)CC2)CN1c1ccc(C#N)c(Cl)c1` (stereo partly drawn) [compound 194], the IC50 in the test on LNCaP cells is < 0.01 µM; in the test with VCaP cells it was < 0.1 µM. The DC50 on AR is < 0.01 µM.

For `C[C@H]1CC2(CCN(c3ccc(C(=O)N4CCC(CN5CCOc6cc7c(cc6C5)C(=O)N(C5CCC(=O)NC5=O)C7=O)CC4)cc3)CC2)CN1c1ccc(C#N)c(Cl)c1` (stereo partly drawn) [compound 195], the IC50 in the test with LNCaP cells is < 0.01 µM; in the test with VCaP cells, < 0.1 µM. The DC50 on AR was < 0.01 µM.

For `C[C@H]1CC2(CCN(c3ccc(CC4CCN(C5CN(c6ccc7c(c6)C(=O)N(C6CCC(=O)NC6=O)C7=O)C5)CC4)cn3)CC2)CN1c1ccc(C#N)c(Cl)c1` (stereo partly drawn) [compound 196], the IC50 in the test with LNCaP cells is < 0.01 µM; with VCaP cells, < 0.1 µM. The DC50 at AR is < 0.001 µM.

Turning to `C[C@H]1CC2(CCN(c3ccc(CC4CCN(C5CN(c6ccc7c(c6)C(=O)N(C6CCC(=O)NC6=O)C7=O)C5)CC4)nc3)CC2)CN1c1ccc(C#N)c(Cl)c1` (stereo partly drawn) [compound 197], the IC50 with LNCaP cells and in the test with VCaP cells was < 0.01 µM each time. The DC50 at AR was < 0.001 µM.

For `C[C@H]1CC2(CCN(c3ccc(CC4CCN(C5CN(c6ccc7c(c6)C(=O)N(C6CCC(=O)NC6=O)C7=O)C5)CC4)nn3)CC2)CN1c1ccc(C#N)c(Cl)c1` (stereo partly drawn) [compound 198], the IC50 in the test on LNCaP cells and with VCaP cells was < 0.01 µM in each case. Also, the half-maximal degradation concentration (DC50) at AR is < 0.01 µM.

For `C[C@H]1CC2(CCN(c3ccc(CN4CCC(N5CCN(c6ccc7c(c6)C(=O)N(C6CCC(=O)NC6=O)C7=O)CC5)CC4)nn3)CC2)CN1c1ccc(C#N)c(Cl)c1` (stereo partly drawn) [compound 202], the IC50 in the test with LNCaP cells and in the test with VCaP cells was < 0.01 µM in each case. Further, the DC50 at AR was < 0.001 µM.

Consider `C[C@H]1CC2(CCN(c3ccc(CN4CCC(N5CCN(c6cc7c(cc6F)C(=O)N(C6CCC(=O)NC6=O)C7=O)CC5)CC4)nn3)CC2)CN1c1ccc(C#N)c(Cl)c1` (stereo partly drawn) [compound 203], for which the IC50 in the test on LNCaP cells and in the test with VCaP cells was < 0.01 µM in each case. Further, the half-maximal degradation concentration (DC50) on AR is < 0.001 µM.

Turning to `C[C@H]1CC2(CCN(c3ccc(CN4CC(N5CCN(c6ccc7c(c6)C(=O)N(C6CCC(=O)NC6=O)C7=O)CC5)C4)cn3)CC2)CN1c1ccc(C#N)c(Cl)c1` (stereo partly drawn) [compound 204], the IC50 with LNCaP cells and with VCaP cells was < 0.01 µM throughout. The 50% degradation concentration (DC50) on AR was < 0.001 µM.

Turning to `C[C@H]1CC2(CCN(c3ccc(CN4CC(N5CCN(c6cc7c(cc6F)C(=O)N(C6CCC(=O)NC6=O)C7=O)CC5)C4)cn3)CC2)CN1c1ccc(C#N)c(Cl)c1` (stereo partly drawn) [compound 205], the IC50 in the test on LNCaP cells and in the test on VCaP cells was < 0.01 µM in each case. For the same molecule, at AR, the DC50 is < 0.001 µM.
